Here are results for six compounds from PubChem BioAssay (NCI).

The structures appear in SMILES notation.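 A five-concentration, 48-hour dose response in 96-well plates underlies each endpoint, interpolated linearly between surrounding concentrations. At the GI50, growth is halved. TGI denotes the concentration required for complete inhibition of growth.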 Where only a bound is given, the exact number is not on record here.

Assay in all cases: NCI tumour cell line growth inhibition, 48 h
Assay [1] concerns OVCAR-8 ovarian.
In assay [2] the test system is MDA-MB-231 breast.
Assay [3] has as its system SF-268 CNS.
In assay [4] the test system is DU-145 prostate.
Assay [5] has as its system CCRF-CEM leukemia.
Assay [6] relates to SNB-19 CNS.
Assay [7] concerns KM12 colon.
For assay [8], the system named is SK-MEL-28 melanoma.
Assay [9] relates to OVCAR-5 ovarian.
Assay [10] has as its system SNB-75 CNS.

Turning to `CCN(CC)c1ccc(/C=C/c2ccc3cc(C)ccc3[n+]2CC)cc1`, the GI50 was 0.107 µM in assay [1]; 0.215 µM in assay [2]; 0.406 µM in [3]; 0.0942 µM in [4]; 0.299 µM in assay [5]; 0.0621 µM in assay [6]. Further, the GI50 in [7] is 0.103 µM; in assay [8], 0.279 µM; in assay [9] it was 0.309 µM; in assay [10] it was 0.161 µM. Besides, the TGI in [1] came out at 12.6 µM; in [2] it was 2.16 µM; in assay [3], 16.5 µM; in assay [4], 12.7 µM; in [5], 29.9 µM; in assay [6] it was 13.4 µM. Besides, the TGI in [7] is 1.89 µM; in [8], 2.19 µM; in assay [9] it was 16.8 µM; in [10], 6.24 µM.
Take `CN1CCN(C)C12C=c1ccccc1=CC21CC1`: the TGI in assay [1] was 98 µM; in assay [2], more than 100 µM; in [3], more than 77 µM; in [4], more than 100 µM; in assay [5], 58.2 µM; in assay [6] it was more than 100 µM. Moreover, the TGI in assay [7] was 68.4 µM; in [8] it was 43 µM; in [9] it was more than 100 µM; in assay [10], more than 93.1 µM.
Consider `Nc1nc(Cl)c2ncn(Cc3ccc(C45CC6CC(CC(C6)C4)C5)c(O)c3)c2n1`, for which the GI50 in [1] was 2.93 µM; in assay [2], 1.85 µM; in assay [3] it was 5.34 µM; in assay [4], 3.14 µM; in assay [5], 0.809 µM; in [6], 6.53 µM. Further, the GI50 in assay [7] was 2.49 µM; in [8] it was 10.6 µM; in [9], 6.13 µM; in [10], 3.88 µM. Besides, the TGI in assay [1] worked out at 14.1 µM; in [2], 11.4 µM; in assay [3], 21.4 µM; in assay [4] it was 11.8 µM; in assay [5], 10.6 µM; in assay [6] it was 22.8 µM. For the same compound, the TGI in [7] stood at 15.3 µM; in assay [8], 25.9 µM; in [9] it was 20.6 µM; in assay [10], 28.9 µM.
Regarding `Cn1c2ccccc2c2c(-c3ccccc3)[n+]3ccncc3nc21`, the GI50 is more than 100 µM in assay [1]; more than 100 µM in assay [2]; 51.3 µM in [3]; more than 100 µM in assay [4]; 89.4 µM in assay [5]; 51.8 µM in [6]. Moreover, the GI50 in assay [7] was 74.9 µM; in assay [8], more than 100 µM; in assay [9], more than 100 µM; in assay [10], more than 100 µM. For the same compound, the TGI in assay [1], in assay [2], in [3], in assay [4], in assay [5] and in assay [6] was more than 100 µM each time. For the same compound, the TGI in [7], in assay [8], in assay [9] and in assay [10] was more than 100 µM each time.
As to `O=C(/C(Br)=C/c1ccccc1)c1ccccc1`, the GI50 in assay [1] is 2.75 µM; in assay [2], 2.44 µM; in assay [3] it was 4.56 µM; in assay [4], 1.77 µM; in assay [5] it was 0.39 µM; in assay [6] it was 13.1 µM. For the same compound, the GI50 is 7.54 µM in assay [7], 5.31 µM in [8], 3.21 µM in assay [9] and 10.6 µM in [10]. The TGI in [1] came to 10.2 µM; in assay [2], 5.12 µM; in assay [3], 16.7 µM; in assay [4], 3.95 µM; in assay [5], 2.01 µM; in assay [6], 26.1 µM. In addition, the TGI in assay [7] was determined as 21.4 µM; in assay [8] it was 23.1 µM; in assay [9], 9.22 µM; in [10], 24.2 µM.
Turning to `CC[CH2][Sn]([CH2]CC)([O]C(=O)c1cccnc1SC)[O][Sn]([CH2]CC)([CH2]CC)[O]C(=O)c1cccnc1SC`, the GI50 was 0.599 µM in assay [1]; 1.34 µM in assay [2]; 0.33 µM in assay [3]; 2.37 µM in assay [4]; 0.0691 µM in [5]; 0.83 µM in [6]. Besides, the GI50 in assay [7] is 1.5 µM; in [8], 0.296 µM; in assay [9] it was 2.09 µM; in [10], 0.584 µM. Moreover, the TGI amounted to 1.92 µM in assay [1]; 2.76 µM in assay [2]; 0.969 µM in [3]; 7.11 µM in assay [4]; 0.756 µM in assay [5]; 2.22 µM in [6]. The TGI was 4.43 µM in assay [7], 0.711 µM in [8], 3.64 µM in assay [9] and 1.97 µM in assay [10].
